Results reported in the supplement of paper PMC11061612.

Assays:
[1] = test system: IM-95 (Gastric Carcinoma); experiment: Bliss excess, mean over the matrix (fraction); higher = more synergy
Method in brief: (§1)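 Bliss excess equals the observed combination effect minus the expected value EA + EB − EA·EB, where EA and EB are the effects of each agent alone. Combination Emax is the second-highest inhibition within the matrix. Inhibition was scaled from CellTiter-Glo 2.0 luminescence, with 0 set by vehicle wells and 1 by blank wells, after 72 hours of two-drug dosing of cells plated in 1536-well plates.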

[2] = test system: COR-L279 (Small Cell Lung Carcinoma); experiment: combination Emax (second highest fraction inhibited in the dose matrix, 72 h); higher = more inhibition; extreme values may be limits of the assay
Method in brief: as §1

[3] = test system: CW-2 (Colorectal Carcinoma); experiment: as above
Method in brief: as §1

[4] = test system: DAN-G (Pancreatic Carcinoma); experiment: as above
Method in brief: as §1

[5] = test system: DMS-114 (Small Cell Lung Carcinoma); experiment: as above
Method in brief: as §1

[6] = test system: ESO51 (Esophageal Adenocarcinoma); experiment: as above
Method in brief: as §1

[7] = test system: HCC1187 (Breast Carcinoma); experiment: as above
Method in brief: as §1

[8] = test system: KYSE-270 (Esophageal Squamous Cell Carcinoma); experiment: as above
Method in brief: as §1

M059J (Glioblastoma) = experiment: as above
Method in brief: as §1

[9] = test system: MN-60 (B-Lymphoblastic Leukemia); experiment: as above
Method in brief: as §1

NCI-H2731 (Mesothelioma) = experiment: as above
Method in brief: as §1

[10] = test system: NCI-H3122 (Lung Adenocarcinoma); experiment: as above
Method in brief: as §1

[11] = test system: NCI-H661 (Non-Small Cell Lung Carcinoma); experiment: as above
Method in brief: as §1

RD (Rhabdomyosarcoma) = experiment: as above
Method in brief: as §1

[12] = test system: SK-GT-2 (Gastric Carcinoma); experiment: as above
Method in brief: as §1

[13] = test system: SK-GT-4 (Esophageal Adenocarcinoma); experiment: as above
Method in brief: as §1

[14] = test system: SNU-398 (Hepatocellular Carcinoma); experiment: as above
Method in brief: as §1

[15] = test system: SU-DHL-5 (B-Cell Non-Hodgkin's Lymphoma); experiment: as above
Method in brief: as §1

[16] = test system: T-T (Esophageal Squamous Cell Carcinoma); experiment: as above
Method in brief: as §1

[17] = test system: VMRC-RCZ (Kidney Carcinoma); experiment: as above
Method in brief: as §1

Compound	Bliss excess [1]	combination Emax [2]	combination Emax [3]	combination Emax [4]	combination Emax [5]	combination Emax [6]	combination Emax [7]	combination Emax [8]	combination Emax (M059J (Glioblastoma))	combination Emax [9]	combination Emax (NCI-H2731 (Mesothelioma))	combination Emax [10]	combination Emax [11]	combination Emax (RD (Rhabdomyosarcoma))	combination Emax [12]	combination Emax [13]	combination Emax [14]	combination Emax [15]	combination Emax [16]	combination Emax [17]
NC1(C(=O)N[C@@H](CCO)c2ccc(Cl)cc2)CCN(c2ncnc3[nH]ccc23)CC1 [Capivasertib] + CC(C)n1c(=O)n(C)c2cnc3cc(F)c(-c4ccc(OCCCN5CCCCC5)nc4)cc3c21 [AZD1390] (first compound max 10 µM, 7x7, partner max 0.3 µM)	-0.0656	0.602	0.274	0.292	0.442	0.246	0.296	0.415	0.512	0.44	0.265	0.509	0.245	0.295	0.338	0.506	0.25	1	0.282	0.372
NC1(C(=O)N[C@@H](CCO)c2ccc(Cl)cc2)CCN(c2ncnc3[nH]ccc23)CC1 [Capivasertib] + CCN(CCO)CCCOc1ccc2c(Nc3cc(CC(=O)Nc4cccc(F)c4)[nH]n3)ncnc2c1 [AZD2811] (first compound max 10 µM, 7x7, partner max 1 µM)	-0.0168	0.935	0.288	0.43	0.456	0.248	0.833	0.329	0.517	0.336	0.398	0.62	0.36	0.349	0.417	0.621	0.542	1	0.331	0.461
NC1(C(=O)N[C@@H](CCO)c2ccc(Cl)cc2)CCN(c2ncnc3[nH]ccc23)CC1 [Capivasertib] + COc1nnc2ccc(N3CCC(c4ccc(OCCN5CCN(C)C(=O)[C@H]5C)cc4)CC3)nn12 [AZD5153] (first compound max 10 µM, 7x7, partner max 1 µM)	0.073	1	0.559	0.466	0.529	0.622	0.309	0.466	0.682	0.848	0.588	0.738	0.454	0.683	0.362	0.758	0.565	1	0.527	0.487
NC1(C(=O)N[C@@H](CCO)c2ccc(Cl)cc2)CCN(c2ncnc3[nH]ccc23)CC1 [Capivasertib] + C[C@@H]1COCCN1C2=NC(=NC(=C2)C3(CC3)[S@](=N)(=O)C)C4=C5C=CNC5=NC=C4 [AZD6738] (first compound max 10 µM, 7x7, partner max 10 µM)	-0.0093	0.853	0.542	0.721	0.623	0.817	0.51	0.651	0.622	0.715	0.514	0.727	0.569	0.402	0.601	0.614	0.752	1	0.389	0.549
NC1(C(=O)N[C@@H](CCO)c2ccc(Cl)cc2)CCN(c2ncnc3[nH]ccc23)CC1 [Capivasertib] + Cn1cnc2c(F)c(Nc3ccc(Br)cc3Cl)c(C(=O)NOCCO)cc21 [Selumetinib] (first compound max 10 µM, 7x7, partner max 10 µM)	-0.0017	0.551	0.482	0.65	0.456	0.624	0.296	0.476	0.415	0.188	0.306	0.882	0.427	0.633	0.497	0.767	0.472	1	0.429	0.388
Cc1nc(Nc2ncc(C(=O)Nc3c(C)cccc3Cl)s2)cc(N2CCN(CCO)CC2)n1 [Dasatinib] + CC(=O)Nc1cccc(-n2c(=O)n(C3CC3)c(=O)c3c(Nc4ccc(I)cc4F)n(C)c(=O)c(C)c32)c1 [Trametinib] (first compound max 2 µM, 7x7, partner max 1 µM)	-0.0551	0.254	0.551	0.962	0.326	0.949	0.137	0.603	0.492	0.27	0.361	0.705	0.502	0.769	0.545	0.791	0.501	1	0.5	0.454
COc1cccc2c1C(=O)c1c(O)c3c(c(O)c1C2=O)C[C@@](O)(C(=O)CO)C[C@@H]3O[C@H]1C[C@H](N)[C@H](O)[C@H](C)O1 [Doxorubicin] + Cc1cc2ncnn2cc1Nc1ncc2c(n1)n(C1CCOCC1)c(=O)n2C [AZD7648] (first compound max 1 µM, 7x7, partner max 10 µM)	0.016	1	0.231	0.735	0.551	0.611	0.724	0.944	0.829	0.833	0.715	0.921	0.753	0.493	0.406	0.593	0.595	1	0.624	0.317
COc1cc2ncnc(Nc3ccc(F)c(Cl)c3)c2cc1OCCCN1CCOCC1 [Gefitinib] + CC(C)n1c(=O)n(C)c2cnc3cc(F)c(-c4ccc(OCCCN5CCCCC5)nc4)cc3c21 [AZD1390] (first compound max 10 µM, 7x7, partner max 0.3 µM)	-0.0527	0.395	0.41	0.0121	0.255	0.188	0.108	0.435	0.178	0.0314	0.0304	0.0961	0.0361	0.0787	0.768	0.373	0.0256	0.393	0.411	0.11
CS(=O)(=O)CCNCc1ccc(-c2ccc3ncnc(Nc4ccc(OCc5cccc(F)c5)c(Cl)c4)c3c2)o1 [Lapatinib] + C[C@@H](Oc1cc(-c2cnn(C3CCNCC3)c2)cnc1N)c1c(Cl)ccc(F)c1Cl [Crizotinib] (first compound max 10 µM, 7x7, partner max 10 µM)	0.0467	0.953	0.708	0.991	0.893	0.997	0.715	0.967	0.801	0.834	0.921	0.938	0.703	0.891	0.995	0.82	0.77	1	0.938	0.365
CC(=O)c1c(C)c2cnc(Nc3ccc(N4CCNCC4)cn3)nc2n(C2CCCC2)c1=O [Palbociclib] + CC1(C)CCC(CN2CCN(c3ccc(C(=O)NS(=O)(=O)c4ccc(NCC5CCOCC5)c([N+](=O)[O-])c4)c(Oc4cnc5[nH]ccc5c4)c3)CC2)=C(c2ccc(Cl)cc2)C1 [Venetoclax] (first compound max 10 µM, 7x7, partner max 1 µM)	-0.0399	0.375	0.336	0.178	0.209	0.288	0.198	0.125	0.0491	0.422	0.211	0.572	0.0364	0.331	0.0922	0.216	0.326	1	0.242	0.105
CC(=O)c1c(C)c2cnc(Nc3ccc(N4CCNCC4)cn3)nc2n(C2CCCC2)c1=O [Palbociclib] + Cc1c2c(nn1C)CSCc1cc(n(C)n1)CSc1cc(c3ccccc3c1)OCCCc1c(C(=O)O)n(C)c3c-2c(Cl)ccc13 [AZD5991] (first compound max 10 µM, 7x7, partner max 1 µM)	-0.114	0.627	0.451	0.222	0.49	0.218	1	0.568	0.191	0.443	0.214	0.605	0.631	0.317	0.168	0.305	0.944	1	0.799	0.194
CC(=O)c1c(C)c2cnc(Nc3ccc(N4CCNCC4)cn3)nc2n(C2CCCC2)c1=O [Palbociclib] + Cn1cnc2c(F)c(Nc3ccc(Br)cc3Cl)c(C(=O)NOCCO)cc21 [Selumetinib] (first compound max 10 µM, 7x7, partner max 10 µM)	0.0356	0.37	0.451	0.43	0.264	0.601	0.129	0.252	0.179	0.402	0.191	0.701	0.119	0.569	0.165	0.566	0.376	1	0.46	0.115
COc1cccc(OCCCN)c1-c1cc(Nc2cnc(C#N)cn2)n[nH]1 [Prexasertib] + C=CCn1c(=O)c2cnc(Nc3ccc(N4CCN(C)CC4)cc3)nc2n1-c1cccc(C(C)(C)O)n1 [AZD1775] (first compound max 1 µM, partner max 1 µM)	0.0876	0.881	0.601	0.801	0.385	0.757	0.819	1	0.822	0.653	0.544	0.896	0.788	0.75	0.899	0.758	0.514	1	0.888	0.388
